According to patent publication US6391917B1, “Dialkyl ureas as calcitonin mimetics” (ZymoGenetics, Inc., priority 1998, dated 2002):

What was measured:
Format in all cases: cell-based
[1] = target: T1, Human calcitonin receptor (Homo sapiens, UniProt P30988); assay: CRE-luciferase assay for calcitonin mimetics (Hollex-1)
T1 construct: expressed in transfected cells; host or cells: BHK-570 (Hollex-1)
T1 sequence (P30988 25-474): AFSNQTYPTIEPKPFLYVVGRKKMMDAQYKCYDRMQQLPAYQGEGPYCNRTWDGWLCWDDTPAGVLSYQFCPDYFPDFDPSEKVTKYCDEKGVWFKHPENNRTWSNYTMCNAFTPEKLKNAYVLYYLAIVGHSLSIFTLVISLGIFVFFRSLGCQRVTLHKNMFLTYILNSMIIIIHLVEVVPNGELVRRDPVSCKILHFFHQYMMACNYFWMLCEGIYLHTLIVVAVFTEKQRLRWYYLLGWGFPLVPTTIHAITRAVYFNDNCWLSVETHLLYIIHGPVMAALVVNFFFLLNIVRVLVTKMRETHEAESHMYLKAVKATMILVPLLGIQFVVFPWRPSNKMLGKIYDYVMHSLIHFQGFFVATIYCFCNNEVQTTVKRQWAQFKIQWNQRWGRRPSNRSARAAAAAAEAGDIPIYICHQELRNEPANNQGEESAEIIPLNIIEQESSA
Procedure: CRE-Luciferase Assay Method for Calcitonin Mimetics
Human calcitonin receptor-positive and receptor-negative BHK-570 (Baby Hamster Kidney) cell lines were maintained by serial passage in growth medium (DMEM supplemented with 10% heat-inactivated fetal calf serum (HI-FCS), 2 mM L-glutamine, 1 mM sodium pyruvate, 250 nM MTX, and 1 mg/mL G418). On the day prior to assay, cells were trypsinized, adjusted to 2.5×10^5 cells/ml in growth medium, plated in opaque white Dynatech Microlite microtiter tissue culture plates at 50 μL/well, and grown overnight to confluence (37° C., 5% CO2 atmosphere).
Test substances were prepared in DMSO or 10% DMF at 100 times the final desired assay concentration. […] Controls were included on each plate: untreated wells (basal), […], and 100 nM human calcitonin. DMSO or DMF was included in control wells at a concentration equal to that in test samples (not to exceed a final assay concentration of 2% DMSO or 0.5% DMF, with a preferred maximum of 1% DMSO or 0.1% DMF).
Plates were incubated for 3 to 8 hours (4 hours preferred) at 37° C. in an atmosphere of 5% CO2. Following induction, luciferase activity was measured using a Promega luciferase assay kit (E1500) according to the assay kit protocol (Promega Corp., Madison, Wis.). Briefly, assay medium was removed and cells were washed once with phosphate buffered saline (PBS). After the wash, 25 μl of lysis buffer was added to each well, and the plates were incubated for 15 minutes at room temperature. Fifty microliters of Luciferase Assay Substrate (Promega, Corp.) was added to each well and the plates were transferred to a Labsystems Lumiscan microtiter luminometer (Labsystems Inc., Morton Grove, Ill.). The amount of luminescence (relative light units, RLU) was determined following a 0.1 second/well integration of signal. Basal (uninduced) luciferase signal was subtracted from all measurements, and the luciferase signal induced by test samples was expressed as a percentage of the signal in the calcitonin and forskolin controls. Specificity of the luciferase induction for calcitonin receptor-positive cell lines was determined by comparing the percent control values in the calcitonin receptor-positive line (Hollex-1) to those observed in the calcitonin receptor-negative cell line (KZ10-20-48/Zem 228) and the PTH receptor-positive cell line (KZ10-20-48/PTH-20) described below. Samples inducing a signal over the basal level were selected for further characterization, see Table 1 for examples.

[2] = tested on: PTH-induced bone resorption in mouse calvariae; assay: Calvarial assay: PTH-induced bone resorption, calcium release; conditions: 1 nM PTH 1-34, 72 hours
Procedure: Calvaria from 4-day old neonatal CD-1 mice (pregnant mice received from Charles River Laboratories, Wilmington, Mass.) were trimmed with fine-tipped scissors to leave the parietal regions, including the sagittal suture. These trimmed bones were placed singly per well into 6-well cell culture cluster plates (Costar, Pleasanton, Calif.) with 1 ml/well of Dulbecco's […] Essential Medium, […] (DMEM, BioWhittaker, Walkersville, Md.) or Basal Eagle's Medium with Earle's salts (EMEM, Gibco/BRL, Grand Island, N.Y.) and 0.29 mg/ml L-glutamine, 1 mM sodium pyruvate, 15% heat-inactivated horse serum, and antibiotics (penicillin-G 50 μg/ml, streptomycin 50 μg/ml, and neomycin 100 μg/ml). Calvaria were rocked gently (RedRocker™, model PR50-115 V, Hoefer, San Francisco, Calif. or Labline Rocking Shaker, model 4635, Labline Instruments, Melrose Park, Ill.) at 37° C. in a 5% CO2 humidified incubator for 24 hours preincubation.
Following preincubation, medium was removed and replaced with 1.5 ml/well of growth medium containing 1 nM parathyroid hormone (PTH) 1-34 (Sigma) to stimulate bone resorption. For evaluation of the ability of calcitonin mimetics to inhibit PTH induced bone resorption, mimetic compounds in DMSO were added to the growth medium at concentrations ranging from 1-400 μg/ml (final assay concentration of DMSO less than or equal to 1%). In each experiment human calcitonin (0.02-2 nM, 0.2-2 nM preferred) was added to PTH treated bones as a positive control. […] All control wells contained a final assay concentration of DMSO equal to that present in calcitonin mimetic treated wells.
Five bones were included in each sample group. Bones were incubated for 72 hours following PTH addition to allow resorption of bone to occur. Observations were made of the general appearance, healthiness and number of cells. that migrate from the calvaria during the incubation as a possible indication of cell toxicity. Calvaria to be examined histologically were transferred to glass scintillation vials containing 10 ml of 10% neutral buffered formalin. […]

[3] = tested on: osteoclasts in mouse calvariae; assay: Calvaria histology (osteoclast number and size, toxicity); conditions: for Histology (bone destruction by PTH, Oc size and #): mouse calvariae treated with PTH
Text: To confirm the findings in the calvarial bone resorption assay employing calcium release from culture mouse calvariae, selected bones were fixed in 10% neutral buffered formalin and demineralized in 5% formic acid with 5% formalin. The bones were dehydrated through an ascending series of ethanol concentrations, infiltrated in glycol methacrylate, and embedded using a JB-4 embedding kit (PolySciences, Warrington, Pa.) (Liu, et al., J. Bone Mineral Res. 5:973-82, 1990). When necessary, an alternative embedding method (paraffin embedding) was used to speed up the embedding process. Cross sections of calvariae cut at 5 μm were obtained and stained for tartrate-resistant acid phosphatase (TRAP) activity and counterstained with methyl green and thionin for cell morphology (Liu, et al., ibid.). Osteoclasts were identified by TRAP stain, multinucleation, large cell size, and irregular cell shape. The number of osteoclasts were counted from endocranial and ectocranial bone surfaces and expressed as number/mm perimeter. The size of all the osteoclasts counted was also measured using a Bone Morphometry program (Liu, et al., ibid.; Bain, et al., J. Bone Miner. Res. 8:435-42, 1993). […] This PTH-induced increase was suppressed by treatment with human calcitonin.
Calcitonin mimetic compounds were evaluated in a similar fashion for their ability to suppress PTH-induced increases in osteoclast number and size (Table 2). Cell toxicity (or death) was also evaluated by the appearance of pyknotic nuclei in a small number of bone cells. With an increased level of toxicity, a further increase in the number of these pyknotic nuclei, detachment of cells from bone surfaces, and losses of cytoplasmic stain and cell boundaries were observed. The osteocytic space also appeared empty.

human PTH receptor = target: T2, human PTH receptor (Homo sapiens, UniProt Q03431); assay: CRE-luciferase induction in clone KZ10-20-48/PTH-20
T2 construct: expressed in transfected cells; host or cells: BHK570 clone KZ10-20-48 (KZ10-20-48/PTH-20)
T2 sequence (Q03431 27-593): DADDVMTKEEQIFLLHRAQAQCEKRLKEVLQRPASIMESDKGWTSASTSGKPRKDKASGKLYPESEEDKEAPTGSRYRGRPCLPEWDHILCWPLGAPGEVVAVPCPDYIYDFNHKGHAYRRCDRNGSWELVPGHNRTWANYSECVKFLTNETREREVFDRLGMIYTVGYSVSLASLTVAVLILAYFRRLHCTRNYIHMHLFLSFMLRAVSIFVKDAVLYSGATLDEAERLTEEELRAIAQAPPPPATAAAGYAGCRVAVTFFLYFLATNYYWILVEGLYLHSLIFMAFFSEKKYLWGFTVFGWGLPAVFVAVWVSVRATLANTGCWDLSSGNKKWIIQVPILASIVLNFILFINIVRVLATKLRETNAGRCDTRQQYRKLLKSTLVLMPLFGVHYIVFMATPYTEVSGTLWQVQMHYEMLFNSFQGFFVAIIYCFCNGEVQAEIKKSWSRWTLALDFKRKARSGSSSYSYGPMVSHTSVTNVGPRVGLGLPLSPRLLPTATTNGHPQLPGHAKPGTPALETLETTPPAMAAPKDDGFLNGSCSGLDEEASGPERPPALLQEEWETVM
Text: Test substances that appear to specifically elevate luciferase expression in CT-R positive cells but not CT-R negative cells were subjected to an additional specificity check, i.e. their inability to activate other members of the G-protein coupled receptor family. The parathyroid hormone (PTH) receptor is another member of the G-protein coupled receptor family that transduces signal through adenylate cyclase mediated elevation of cAMP.

C=CCNC(=O)[C@@H](Cc1ccc(F)cc1)NC(=O)Nc1cc(C(C)(C)C)ccc1C(C)(C)C [628-033]
Luciferase induction (% of maximum luciferase induction produced by CT, 100 nM) ([1]; crude compound 6.25 μg/ml): 14.71% | Luciferase induction (% of maximum luciferase induction produced by CT, 100 nM) ([1]; crude compound 12.5 μg/ml): 27.68% | Luciferase induction (% of maximum luciferase induction produced by CT, 100 nM) ([1]; crude compound 25 μg/ml): 31.63% | Luciferase induction (% of maximum luciferase induction produced by CT, 100 nM) ([1]; crude compound 50 μg/ml): 33.62% | Release of PTH Induced Ca++ IC50 [2]: 30 µg/mL | Histology (bone destruction by PTH, Oc size and #) [3]: Decreases in bone

C=CCNC(=O)[C@@H](Cc1ccc2ccccc2c1)NC(=O)Nc1cc(C(C)(C)C)ccc1C(C)(C)C [628-035]
Luciferase induction (% of maximum luciferase induction produced by CT, 100 nM) ([1]; crude compound 6.25 μg/ml): 34.84% | Luciferase induction (% of maximum luciferase induction produced by CT, 100 nM) ([1]; crude compound 12.5 μg/ml): 43.25% | Luciferase induction (% of maximum luciferase induction produced by CT, 100 nM) ([1]; crude compound 25 μg/ml): 46.43% | Luciferase induction (% of maximum luciferase induction produced by CT, 100 nM) ([1]; crude compound 50 μg/ml): 52.27% | Release of PTH Induced Ca++ IC50 [2]: 23 µg/mL | Histology (bone destruction by PTH, Oc size and #) [3]: Decreases in bone

CC(C)(C)c1ccc(C(C)(C)C)c(NC(=O)N[C@H](Cc2ccc3ccccc3c2)C(=O)NCc2ccc3ccccc3c2)c1 [628-055]
Luciferase induction (% of maximum luciferase induction produced by CT, 100 nM) ([1]; crude compound 6.25 μg/ml): 24.81% | Luciferase induction (% of maximum luciferase induction produced by CT, 100 nM) ([1]; crude compound 12.5 μg/ml): 35.48% | Luciferase induction (% of maximum luciferase induction produced by CT, 100 nM) ([1]; crude compound 25 μg/ml): 43.3% | Luciferase induction (% of maximum luciferase induction produced by CT, 100 nM) ([1]; crude compound 50 μg/ml): 48.69% | Release of PTH Induced Ca++ IC50 [2]: 14 µg/mL | Histology (bone destruction by PTH, Oc size and #) [3]: Decreases in bone

CC(C)(C)c1ccc(C(C)(C)C)c(NC(=O)N[C@@H](C(=O)NCc2ccc3ccccc3c2)c2ccccc2)c1 [628-056]
Luciferase induction (% of maximum luciferase induction produced by CT, 100 nM) ([1]; crude compound 3.125 μg/ml): 4.2% | Luciferase induction (% of maximum luciferase induction produced by CT, 100 nM) ([1]; crude compound 6.25 μg/ml): 14.7% | Luciferase induction (% of maximum luciferase induction produced by CT, 100 nM) ([1]; crude compound 12.5 μg/ml): 28.6% | Luciferase induction (% of maximum luciferase induction produced by CT, 100 nM) ([1]; crude compound 25 μg/ml): 35.6% | Luciferase induction (% of maximum luciferase induction produced by CT, 100 nM) ([1]; crude compound 50 μg/ml): 37.1%

C=C[C@@]1(C)CC(=O)[C@]2(O)[C@@]3(C)[C@@H](O)CCC(C)(C)[C@@H]3[C@H](O)[C@H](OC(C)=O)[C@@]2(C)O1 [forskolin]
EC50 (human PTH receptor): 2 µM

CC[C@H](C)[C@H](NC(=O)[C@H](C)NC(=O)[C@@H](NC(=O)[C@H](CCC(N)=O)NC(=O)[C@@H]1CCCN1C(=O)[C@H](Cc1ccccc1)NC(=O)[C@@H](NC(=O)[C@H](Cc1c[nH]cn1)NC(=O)[C@H](Cc1ccccc1)NC(=O)[C@H](CCCCN)NC(=O)[C@H](CC(N)=O)NC(=O)[C@H](Cc1ccccc1)NC(=O)[C@H](CC(=O)O)NC(=O)[C@H](CCC(N)=O)NC(=O)[C@@H](NC(=O)[C@H](Cc1ccc(O)cc1)NC(=O)[C@@H](NC(=O)CNC(=O)[C@H](CC(C)C)NC(=O)[C@H](CCSC)NC(=O)[C@@H]1CSSC[C@H](N)C(=O)NCC(=O)N[C@@H](CC(N)=O)C(=O)N[C@@H](CC(C)C)C(=O)N[C@@H](CO)C(=O)N[C@@H]([C@@H](C)O)C(=O)N1)[C@@H](C)O)[C@@H](C)O)[C@@H](C)O)[C@@H](C)O)C(=O)NCC(=O)N[C@H](C(=O)NCC(=O)N[C@@H](C)C(=O)N1CCC[C@H]1C(N)=O)C(C)C [human calcitonin, reference compound]
PTH-induced increase in number and size of osteoclasts ([3]; mouse calvariae, PTH 1-34 treatment): suppressed
